This is an account of results in ChEMBL document CHEMBL1201862, “PubChem BioAssay data set” (2004).

Assay in all cases: NCI anticancer screen, dose series, 48 h
Assay [1] concerns CAKI-1.
The subject of assay [2] is COLO 205.
The test system of assay [3] is DU-145.
Assay [4] relates to HCT-116.
Assay [5] has as its system HCT-15.
For assay [6], the system named is K562.
Assay [7] has as its system MDA-N.
For assay [8], the system named is Malme-3M.
For assay [9], the system named is NCI-H522.
The test system of assay [10] is OVCAR-4.
Assay [11] deals with RPMI-8226.
Assay [12] deals with SK-OV-3.
Assay [13] has as its system SW-620.
Assay [14] concerns SK-MEL-2.
The test system of assay [15] is Hs-578T.

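Results reflect a 48-hour exposure of cells in 96-well plates to compound at five concentrations. Abbreviation: GI50, concentration required for 50% inhibition of growth.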 The source made the active and inactive calls. No stated cut-off is given here; in the data, active = GI50 up to about 1.1 µM and inactive = higher. Residues, ends and D or L forms follow the SMILES beside them. Groups on a side chain read outwards from the residue. *: point of attachment. Cbz = O=C(OCc1ccccc1)*; Boc = CC(C)(C)OC(=O)* Some results are limits rather than exact numbers.

With `O=C(CSC1=NC(=O)C2(NN1)c1ccccc1-c1ccccc12)NC(=S)Nc1ccccc1`, the GI50 was > 10 µM (inactive) in assay [1]; > 10 µM (inactive) in [2]; > 10 µM (inactive) in assay [3]; > 10 µM (inactive) in assay [4]; greater than 10 µM in [5]; > 10 µM (inactive) in assay [6]. Moreover, the GI50 was > 10 µM (inactive) in assay [7]; > 10 µM (inactive) in [8]; 7.03 µM (inactive) in [9]; > 10 µM (inactive) in assay [10]; 9.04 µM (inactive) in assay [11]; > 10 µM (inactive) in assay [12]. For the same compound, in assay [13], the GI50 was > 10 µM (inactive).

As for `NC(=O)N/N=C1\CCCCc2ccccc21`, the GI50 in assay [1] was > 10 µM (inactive); in assay [2], > 10 µM (inactive); in assay [3] it was > 10 µM (inactive); in assay [4] it was > 10 µM (inactive); in [5], greater than 10 µM; in assay [6] it was > 10 µM (inactive). Moreover, the GI50 in [7], in assay [8], in [9], in [10], in assay [11] and in [14] was > 10 µM (inactive) each time. In [13], the GI50 is > 10 µM (inactive).

As to `COC(=O)N/N=C(\C)C(CN1CCOCC1)C(c1ccccc1)c1cc2ccccc2oc1=O` (stereo unspecified), the GI50 in assay [1] was > 100 µM (inactive); in assay [2], 52.6 µM (inactive); in assay [3], > 100 µM (inactive); in [4], > 100 µM (inactive); in assay [5] it was greater than 100 µM; in assay [15], > 100 µM (inactive). Further, the GI50 in assay [6] is 70.5 µM (inactive); in [8] it was 62.5 µM (inactive); in assay [9], > 100 µM (inactive); in assay [10], 74.3 µM (inactive); in assay [11], 25 µM (inactive); in [14], > 100 µM (inactive). In addition, the GI50 in assay [12] and in assay [13] was > 100 µM (inactive) in each case.

With `O=CNNC(=O)Nc1cccc2ccccc12`, the GI50 in assay [2] is > 100 µM (inactive); in assay [3], > 100 µM (inactive); in assay [4], > 100 µM (inactive); in assay [5] it was greater than 100 µM; in [15], > 100 µM (inactive); in assay [6], > 100 µM (inactive). Besides, the GI50 in assay [8], in [10], in assay [11], in [12] and in [13] was > 100 µM (inactive) throughout.

As for `CC1CCC(C(C)C)C(OC(=O)NCn2cc(-c3ccccc3)nn2)C1` (stereo unspecified), the GI50 in assay [1] was > 100 µM (inactive); in assay [2], > 100 µM (inactive); in assay [3] it was > 100 µM (inactive); in assay [4], > 100 µM (inactive); in assay [5] it was greater than 100 µM; in assay [6], > 100 µM (inactive). In addition, the GI50 is > 100 µM (inactive) in [8]; > 100 µM (inactive) in assay [9]; 57.8 µM (inactive) in assay [10]; > 100 µM (inactive) in [11]; > 100 µM (inactive) in assay [14]; > 100 µM (inactive) in assay [13].

On to `C[C@]12C(=O)OC[C@H](c3ccccc3)N1C(=O)N(Cc1ccccc1)[C@@H]2CO`, for which the GI50 in [1] was > 100 µM (inactive); in assay [2], > 100 µM (inactive); in [3], > 100 µM (inactive); in [4], > 100 µM (inactive); in assay [5], greater than 100 µM; in assay [15] it was > 100 µM (inactive). The GI50 in assay [6], in assay [7], in assay [8], in [10], in assay [14] and in [12] was > 100 µM (inactive) throughout. Further, in assay [13], the GI50 is > 100 µM (inactive).

Regarding `Nc1ncnc2ccc(Sc3ccc4ncnc(N)c4c3)cc12`, the GI50 is > 100 µM (inactive) in assay [1]; > 100 µM (inactive) in [2]; > 100 µM (inactive) in assay [3]; > 100 µM (inactive) in assay [4]; greater than 100 µM in [5]; > 100 µM (inactive) in assay [15]. The GI50 in [6], in [8], in assay [10], in assay [11], in [14] and in assay [12] was > 100 µM (inactive) each time. Moreover, in assay [13], the GI50 was > 100 µM (inactive).

Regarding `CC(=O)Nc1ccc2c(c1)[nH]c(=O)c1cc(Cl)ccc12`, the GI50 in [1] was 0.51 µM (active); in [2] it was 47.2 µM (inactive); in [3] it was 19.9 µM (inactive); in [4], 17.4 µM (inactive); in [5], 33.1 µM; in assay [15] it was 94 µM (inactive). The GI50 in assay [6] is 34.1 µM (inactive); in assay [8] it was 17.1 µM (inactive); in assay [9], 27.1 µM (inactive); in assay [10] it was 34.1 µM (inactive); in assay [14] it was 46.6 µM (inactive); in assay [12] it was 34.8 µM (inactive). Besides, the GI50 in [13] was 27.7 µM (inactive).

As for `NC(=O)CN1CC(C2=C(O)CN(CC(N)=O)C2=O)=CC1=O`, the GI50 was > 100 µM (inactive) in [1]; > 100 µM (inactive) in assay [2]; > 100 µM (inactive) in [3]; > 100 µM (inactive) in [4]; greater than 100 µM in assay [5]; > 100 µM (inactive) in assay [15]. For the same compound, the GI50 in assay [6], in assay [8], in assay [9], in assay [10], in assay [11] and in assay [14] was > 100 µM (inactive) in each case. Moreover, the GI50 in assay [12] and in assay [13] was > 100 µM (inactive) in each case.

In the case of `COc1ncnc2c1cnn2Cc1cn(COCC(O)CO)nn1` (stereo unspecified), the GI50 is > 100 µM (inactive) in assay [1]; > 100 µM (inactive) in assay [2]; > 100 µM (inactive) in assay [3]; > 100 µM (inactive) in [4]; greater than 100 µM in [5]; > 100 µM (inactive) in assay [6]. Also, the GI50 in assay [7] is > 100 µM (inactive); in assay [9], 10.8 µM (inactive); in assay [10] it was > 100 µM (inactive); in [11], > 100 µM (inactive); in assay [14] it was > 100 µM (inactive); in assay [12], > 100 µM (inactive). Moreover, the GI50 in assay [13] is > 100 µM (inactive).

`CCOC(=O)C1C(=O)CC(C)(O)C(C(=O)OCC)C1c1ccc(N(C)C)cc1` (stereo unspecified): the GI50 in [1] was > 100 µM (inactive); in [2] it was > 100 µM (inactive); in assay [3] it was > 100 µM (inactive); in assay [4], > 100 µM (inactive); in assay [5], greater than 100 µM; in assay [6] it was > 100 µM (inactive). For the same compound, the GI50 in assay [8], in assay [9], in assay [10], in assay [14] and in assay [13] was > 100 µM (inactive) each time.

As for `COc1c(N2CCCCC2)c2c(=O)c3ccccc3oc2c2c3ccccc3n(C)c12`, the GI50 was > 100 µM (inactive) in assay [1]; 26.2 µM (inactive) in [2]; > 100 µM (inactive) in [3]; 53.1 µM (inactive) in assay [4]; greater than 100 µM in assay [5]; > 100 µM (inactive) in [15]. The GI50 in assay [6] is 58.2 µM (inactive); in assay [7], 38.1 µM (inactive); in assay [8], > 100 µM (inactive); in assay [10], > 100 µM (inactive); in assay [11], 47.1 µM (inactive); in assay [14], > 100 µM (inactive). In addition, the GI50 in [12] and in assay [13] was > 100 µM (inactive) each time.

Take `COc1ccc(N2C(=O)/C(=C\c3cccc(Oc4ccccc4)c3)S(=O)(=O)C2c2ccccc2)cc1` (stereo unspecified): the GI50 in assay [1] was 68.4 µM (inactive); in assay [2] it was 64.1 µM (inactive); in [3], 38.3 µM (inactive); in assay [4], 20.4 µM (inactive); in [5], 21 µM; in assay [6], 16.4 µM (inactive). Moreover, the GI50 in assay [7] was 19.1 µM (inactive); in [8], 24.4 µM (inactive); in [9] it was 12.3 µM (inactive); in [10], 28.6 µM (inactive); in [14], 37.2 µM (inactive); in [13], 60.8 µM (inactive).

On to `Cc1nc2c(=S)n(C)ncc2[nH]1`, for which the GI50 in [1] is > 100 µM (inactive); in assay [2], > 100 µM (inactive); in assay [4] it was > 100 µM (inactive); in assay [5], greater than 100 µM; in [6] it was > 100 µM (inactive); in [7], > 100 µM (inactive). Besides, the GI50 in assay [8] is 0.0133 µM (active); in assay [9], 34 µM (inactive); in [10], > 100 µM (inactive); in [11], > 100 µM (inactive); in assay [14], > 100 µM (inactive); in [12] it was > 100 µM (inactive). In addition, the GI50 in [13] was > 100 µM (inactive).

Consider `CC(C)(C)OC(=O)NC(CCCCNC(=O)CNC(=O)OCc1ccccc1)C(=O)NC(CCCCNC(=O)CNC(=O)OCc1ccccc1)C(=O)NC(CCCCNC(=O)CNC(=O)OCc1ccccc1)C(=O)NC(CCCCNC(=O)CNC(=O)OCc1ccccc1)C(=O)O` (stereo unspecified) (Boc-K([Gly-Cbz])K([Gly-Cbz])K([Gly-Cbz])K([Gly-Cbz])-OH; configuration not given here), for which the GI50 in [1] is > 100 µM (inactive); in [3] it was > 100 µM (inactive); in assay [4], > 100 µM (inactive); in assay [5], greater than 100 µM; in [6], > 100 µM (inactive); in assay [7] it was > 100 µM (inactive). In addition, the GI50 in [8] was > 100 µM (inactive); in [9] it was > 100 µM (inactive); in [10] it was > 10 µM (inactive); in assay [11], > 100 µM (inactive); in [14], > 100 µM (inactive); in assay [13], > 100 µM (inactive).
